# Legend:
# L-SMase = experiment: SMase assay of CHO cell homogenate and 16,000-x-g pellet; assay type: biochemical, Chinese hamster
# Protocol: FIGS. 18A-B. Zn^2+-dependency of SMase in a sonicated cell homogenate and 16,000-x-g pellet. CHO cells were grown to 90% confluency in Ham's F-12 media containing 10% HI-FBS and PSG and then washed 3 times with PBS before incubation in serum-free medium containing 0.2% BSA for 24 h. The cells were then washed 3 times in 0.25 M sucrose and the total cell homogenate and the 16,000-x-g cellular subfraction were isolated as described in “Experimental Procedures”. Twelve micrograms of the cell homogenate (Homogenate) and 2.5 μg of the 16,000-x-g pellet (16K-xg Pellet) were assayed for SMase activity in the presence of either 5 mM EDTA (hatched bars) or 0.1 mM ZnCl2 (solid bars) for 1 h at 37° C. at pH 5.0. […]
# SMase Assay—As previously described (Schissel et al., 1996), the standard 200-μl assay mixture consisted of up to 40 μl of sample (conditioned media or homogenized cells; see above) and a volume of assay buffer (0.1 M sodium acetate, pH 5.0) to bring the volume to 160 μl. […] The ceramide spots were scraped and directly counted to quantify [^3H]ceramide. Typically, the assay reactions contained approximately 20 μg of cellular homogenate protein and a volume of conditioned media derived from a quantity of cells equivalent to approximately 50 μg of cellular protein.
# [1] = tested on: mannose-phosphorylated S-SMase of HUVECs; experiment: Binding of HUVEC S-SMase to mannose-phosphate receptor column; assay type: cell-based, human; conditions: conditioned medium of IL-1β-treated HUVECs; Western blot densitometry
# From the text: We recently reported that S-SMase is secreted through a Golgi pathway that bypasses the lysosomal pathway of L-SMase. Thus, we considered three general mechanisms to explain how IL-Lβ increases the secretion of SMase: secretion of mannose-phosphorylated SMase during trafficking of the ASM precursor to lysosomes (e.g., due to saturation of the mannose-6-phosphate receptor—cf. Ref. (46)), induction of secretion of intralysosomal SMase (cf. Ref. (47)), or increased trafficking of the ASM precursor protein through the normal Golgi secretory pathway. To begin, we assessed the mannose-phosphorylation state of S-SMase from control and IL-1β-treated HUVECs by passing conditioned media from these cells over a mannose-phosphate receptor column (cf. Ref. (48)). By Western blot analysis quantified by densitometry, only 7.9% of control S-SMase and 4.9% of S-SMase from the cytokine-treated cells bound to the column and could be eluted with mannose-6-phosphate. As a control for this experiment, we have previously shown that the massive secretion of SMase by ASM-transfected CHO cells can be partly explained by secretion of mannose-phosphorylated SMase due to saturation of the mannose-6-phosphate receptor^2; when conditioned medium from these cells was passed over the receptor column, 40.3% bound and could be eluted with mannose-6-phosphate. […]
# [2] = tested on: S-SMase secretion by HUVECs; experiment: Cytokine regulation of S-SMase secretion by HUVECs (SMase activity in conditioned media); assay type: cell-based, human; conditions: 18 h, IL-1β 5 ng/ml, interferon-γ 1000 units/ml
# Protocol: Conditioned media (FIG. 23A) and cell homogenates (FIG. 23B) from these cells were then assayed for SMase activity in the presence or absence of 0.1 mM ZnCl2, respectively.
# The cells were then washed 3 times with PBS and incubated for 24 h in 1 ml fresh serum-free media containing 0.2%6 BSA. This 24-h conditioned medium was collected for SMase assays.
# Harvesting of Cells and Conditioned Media—Following the incubations described above and in the figure legends, cells were placed on ice and the serum-free conditioned media was removed. The cells were washed two times with ice-cold 0.25 M sucrose and scraped into 0.3 ml and 3.0 ml of this sucrose solution per 35-mm and 100-mm dishes, respectively. Unless indicated otherwise, the scraped cells were disrupted by sonication on ice using three 5-second bursts (Branson 450 Sonifier), and the cellular homogenates were assayed for total protein by the method of Lowry et al. (22) and for SMase activity as described below. The conditioned media were spun at 800×g for 5 min to pellet any contaminating cells and concentrated six-fold using a Centriprep 30 (Amicon; Beverly, Mass.) concentrator (molecular weight cut off=30,000).
# Typically, our assay reactions contained approximately 20 μg of cellular homogenate protein and a volume of conditioned media derived from a quantity of cells equivalent to approximately 50 μg of cellular protein.
S-SMase bound to mannose-phosphate receptor column and eluted with mannose-6-phosphate [1] [%],Compound,"effect of exogenous Zn2+ on SMase activity (L-SMase; 16,000-x-g pellet (intact lysosomes), sonicated)",effect of exogenous Zn2+ on SMase activity (L-SMase; sonicated cell homogenate),increase of S-SMase activity / secretion (conditioned media) [2] [fold]
,"[Cl-].[Cl-].[Zn+2] [Zn^2+, ZnCl2]",substantially stimulated,no effect,
4.9,IL-1β: human recombinant interleukin-1β,,,~3
